pIC50: −log10 of the molar value.
What was measured:
Assay in all cases: Cell proliferation inhibition, CTG (CelltiterGlo) method, alone or combined with fulvestrant
Assay type in all cases: cell-based
[1] = test system: MCF-7 Cells; conditions: compound alone; for pIC50: Homo sapiens, MCF7, 168 h, 7 days; for Maximum Inhibition Rate on MCF-7 Cells: maximum value fitted by GraphPad Prism 8
Protocol: (§1) a). BT-474 cells were cultured in Hybri-Care medium supplemented with 1% antibiotics and 10% FBS, and incubated in the condition of 37°C with 5% CO2; b). MCF-7 cells were cultured in EMEM medium supplemented with 1% antibiotics, 0.01 mg/mL insulin, and 10% FBS, and incubated in the condition of 37°C with 5% CO2; c). ZR-75-1 cells were cultured in RPMI-1640 medium supplemented with 1% antibiotics and 10% FBS, and incubated in the condition of 37°C with 5% CO2; d). T47D cells were cultured in RPMI-1640 medium supplemented with 1% antibiotics, 0.2 U/mL insulin, and 10% FBS, and incubated in the condition of 37°C with 5% CO2; e) CAMA-1 cells were cultured in EMEM medium supplemented with 1% antibiotics and 10% FBS, and incubated in the condition of 37°C with 5% CO2.
(§2) a). Cells were routinely cultured until reaching 80%-90% confluence and when the required cell number was reached, they were harvested; b). Resuspended in the corresponding medium, counted, and prepared into a cell suspension with appropriate density; c). The cell suspension was added to a 384-well plate at 40 µL per well. Table 1. Plating densities of different cell lines
(§3) d). The cells were cultured overnight in an incubator at 37°C with 5% CO2 .
(§4) a). The compound of Formula (A) was serially diluted 3-fold for 10 concentrations starting from a stock solution of 60 mM (using the monofumarate dihydrate of the compound of Formula (A), with the concentration calculated based on the free base of the compound of Formula (A); the compound of Formula (A) or salt thereof was prepared with reference to the preparation method disclosed in WO2022017448A1); b). Fulvestrant was diluted from 10 mM to 2 mM with DMSO, then serially diluted 3-fold for 10 concentrations; c). Fulvestrant was diluted from 2 mM to 0.2 mM with DMSO, then serially diluted 3-fold for 10 concentrations; d). Fulvestrant was diluted from 0.2 mM to 2 µM with DMSO; e). Fulvestrant was diluted from 2 µM to 0.8 µM with DMSO; f). Fulvestrant was diluted from 2 µM to 0.3 µM with DMSO; g) Fulvestrant was diluted from 0.8 µM to 0.08 µM with DMSO; h). The final concentration of DMSO was 0.1%; i). Cells supplemented with DMSO served as control wells for high reading values; j). Cell-free medium served as control wells for low reading values.
(§5) 24 Hours after MCF-7, T47D, and CAMA-1 cells were plated, the compound was administered alone. For the compound of Formula (A): 20 nL of the compound prepared in step 2.3 a) + 20 nL of DMSO were added. For compound fulvestrant: 20 nL of the compound prepared in step 2.3 c) + 20 nL of DMSO were added.
24 Hours after MCF-7 cells were plated, the compound of Formula (A) was administered in combination with fulvestrant: 20 nL of the compound prepared in step 2.3 a) + 20 nL of the compounds prepared in step 2.3 c), e), and f). […]

[2] = test system: T47D Cells; conditions: compound alone; for pIC50: Homo sapiens, T47D, 168 h, 7 days; for Maximum Inhibition Rate on T47D Cells: maximum value fitted by GraphPad Prism 8
Protocol: as §1, §2, §3, §4, §5
24 Hours after T47D cells were plated, the compound of Formula (A) was administered in combination with fulvestrant: 20 nL of the compound prepared in step 2.3 a) + 20 nL of the compounds prepared in step 2.3 c), e), and g). […]

[3] = test system: BT-474 Cells; conditions: compound alone; for pIC50: Homo sapiens, BT-474, 168 h, 7 days; for Maximum Inhibition Rate on BT-474 Cells: maximum value fitted by GraphPad Prism 8
Protocol: as §1, §2, §3, §4
(§6) 24 Hours after BT474 and ZR-75-1 cells were plated, the compound was administered alone. For the compound of Formula (A): 20 nL of the compound prepared in step 2.3 a) + 20 nL of DMSO were added. For the compound fulvestrant: 20 nL of the compound prepared in step 2.3 b) + 20 nL of DMSO were added.
(§7) 24 Hours after BT474 and ZR-75-1 cells were plated, the compound of Formula (A) was administered in combination with fulvestrant: 20 nL of the compound prepared in step 2.3 a) + 20 nL of the compounds prepared in step 2.3 b) and d).
(§8) Fulvestrant for point-to-point combination (nM): 1000, 333, 111, 37, 12.3, 4.1, 1.37, 0.46, 0.15, 0.05, which are respectively combined with the gradient concentrations of the compound of Formula (A); Fulvestrant for single-concentration combination (nM): 1000, 1, which are respectively combined with the gradient concentrations of the compound of Formula (A).
(§9) The compound of Formula (A) (nM): 30000, 10000, 3333, 1111, 370, 123, 41.2, 13.7, 4.57, 1.52; • Fulvestrant for point-to-point combination (nM): 100, 33.3, 11.1, 3.7, 1.23, 0.41, 0.14, 0.046, 0.015, 0.005, which are respectively combined with the gradient concentrations of the compound of Formula (A); • Fulvestrant for single-concentration combination (nM): 1.2, 0.14, which are respectively combined with the gradient concentrations of the compound of Formula (A). d). The cell culture plates were centrifuged at 1000 rpm for 1 min, then placed in an incubator at 37°C with 5% CO2 for 7 days.
(§10) a). 40 µL of CTG reagent (CelltiterGlo kit) was added to each well, placed on a rapid shaker for 2 minutes of oscillation, centrifuged at 1000 rpm for 1 min, and then left at room temperature in the dark for 30 minutes; b). […]

[4] = test system: ZR-75-1 Cells; conditions: compound alone; for pIC50: Homo sapiens, ZR-75-1, 168 h, 7 days; for Maximum Inhibition Rate on ZR-75-1 Cells: maximum value fitted by GraphPad Prism 8
Protocol: as §1, §2, §3, §4, §6, §7, §8, §9, §10

Row | Structure (SMILES) | pIC50 [1] | Maximum Inhibition Rate on MCF-7 Cells [1] [%] | pIC50 [2] | Maximum Inhibition Rate on T47D Cells [2] [%] | pIC50 [3] | Maximum Inhibition Rate on BT-474 Cells [3] [%] | pIC50 [4] | Maximum Inhibition Rate on ZR-75-1 Cells [4] [%]
1 | C[C@]12CC[C@@H]3c4ccc(O)cc4C[C@@H](CCCCCCCCC[S+]([O-])CCCC(F)(F)C(F)(F)F)[C@H]3[C@@H]1CC[C@@H]2O (stereo partly shown) [Fulvestrant, reference compound] | 9.72 | 54.67 | 10.05 | 62.71 | < 6.00 | 43.33 | < 6.00 | 43.96
2 | CC(C)NC[C@@H](C(=O)N1CCN(c2ncnc3c2[C@H](C)CC(=O)N3)[C@H]2C[C@H]21)c1ccc(Cl)cc1 [The compound of Formula (A), (R)-4-((1S,6R)-5-((S)-2-(4-chlorophenyl)-3-(isopropylamino)propanoyl)-2,5-diazabicyclo[4.1.0]heptan-2-yl)-5-methyl-5,8-dihydropyrido[2,3-d]pyrimidin-7(6H)-one] | 6.12 | 98.92 | 6.45 | 91.47 | 6.17 | 84.62 | 5.66 | 92.45

From patent publication EP4729061A1, “USE OF AKT INHIBITOR IN PREPARATION OF DRUG FOR PREVENTING OR TREATING BREAST CANCER” (Nanjing Chia Tai Tianqing Pharmaceutical Co., Ltd., priority 2023, dated 2024)
